Assay results from ChEMBL document CHEMBL1201862, “PubChem BioAssay data set” (2004).
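Interpolation was linear, between the two tested concentrations surrounding the appropriate level; five concentrations were tested over 48 hours in 96-well plates. Here, GI50 denotes the concentration required for 50% inhibition of growth.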 Active and inactive are the calls of the source. No stated cut-off is given here; in the data, active = GI50 up to about 1.1 µM and inactive = higher.

Experiments:
Assay in all cases: growth of human tumour cells (NCI), 48 h
786-0 = system: 786-0
A498 = system: A498
A549 = system: A549
ACHN = system: ACHN
BT-549 = system: BT-549
CAKI-1 = system: CAKI-1
COLO 205 = system: COLO 205
DU-145 = system: DU-145
EKVX = system: EKVX
HCC 2998 = system: HCC 2998
HCT-116 = system: HCT-116
HCT-15 = system: HCT-15
HL-60 = system: HL-60
HOP-62 = system: HOP-62
HOP-92 = system: HOP-92
HT-29 = system: HT-29
Hs-578T = system: Hs-578T
IGROV-1 = system: IGROV-1
KM12 = system: KM12
LOX IMVI = system: LOX IMVI
M14 = system: M14
MCF7 = system: MCF7
MDA-MB-231 = system: MDA-MB-231
MDA-MB-435 = system: MDA-MB-435
MDA-N = system: MDA-N
MOLT-4 = system: MOLT-4
NCI-H226 = system: NCI-H226
NCI-H23 = system: NCI-H23
NCI-H460 = system: NCI-H460
NCI-H522 = system: NCI-H522
NCI/ADR-RES = system: NCI/ADR-RES
OVCAR-3 = system: OVCAR-3
OVCAR-4 = system: OVCAR-4
OVCAR-5 = system: OVCAR-5
OVCAR-8 = system: OVCAR-8
PC-3 = system: PC-3
RPMI-8226 = system: RPMI-8226
RXF 393 = system: RXF 393
SF-268 = system: SF-268
SF-295 = system: SF-295
SF-539 = system: SF-539
SK-MEL-28 = system: SK-MEL-28
SK-MEL-2 = system: SK-MEL-2
SK-MEL-5 = system: SK-MEL-5
SK-OV-3 = system: SK-OV-3
SN12C = system: SN12C
SNB-19 = system: SNB-19
SNB-75 = system: SNB-75
SR = system: SR
SW-620 = system: SW-620
T47D = system: T47D
TK-10 = system: TK-10
U-251 = system: U-251
UACC-257 = system: UACC-257
UACC-62 = system: UACC-62
UO-31 = system: UO-31
CCRF-CEM = system: CCRF-CEM

O=C1NC2(CN3CCC2CC3)C(=O)N1CN(Cc1ccccc1)c1ccccc1 (stereo not given)
GI50 (786-0): > 100 µM (inactive) | GI50 (A498): > 100 µM (inactive) | GI50 (A549): 81.1 µM (inactive) | GI50 (ACHN): 72.8 µM (inactive) | GI50 (BT-549): > 100 µM (inactive) | GI50 (CAKI-1): > 100 µM (inactive) | GI50 (COLO 205): 92.7 µM (inactive) | GI50 (DU-145): 48.4 µM (inactive) | GI50 (EKVX): > 100 µM (inactive) | GI50 (HCC 2998): 39.6 µM (inactive) | GI50 (HCT-116): > 100 µM (inactive) | GI50 (HCT-15): 41.2 µM | GI50 (HL-60): 21.1 µM (inactive) | GI50 (HOP-62): > 100 µM (inactive) | GI50 (HOP-92): > 100 µM (inactive) | GI50 (HT-29): 56.6 µM (inactive) | GI50 (Hs-578T): > 100 µM (inactive) | GI50 (IGROV-1): > 100 µM (inactive) | GI50 (KM12): > 100 µM (inactive) | GI50 (LOX IMVI): 35.2 µM (inactive) | GI50 (M14): 33.7 µM (inactive) | GI50 (MCF7): 47.9 µM (inactive) | GI50 (MDA-MB-231): > 100 µM (inactive) | GI50 (MDA-MB-435): > 100 µM (inactive) | GI50 (MDA-N): > 100 µM (inactive) | GI50 (MOLT-4): 68.7 µM (inactive) | GI50 (NCI-H226): > 100 µM (inactive) | GI50 (NCI-H23): 44.4 µM (inactive) | GI50 (NCI-H460): 29.4 µM (inactive) | GI50 (NCI-H522): 94.6 µM (inactive) | GI50 (NCI/ADR-RES): > 100 µM (inactive) | GI50 (OVCAR-3): > 100 µM (inactive) | GI50 (OVCAR-4): > 100 µM (inactive) | GI50 (OVCAR-5): > 100 µM (inactive) | GI50 (OVCAR-8): 57 µM (inactive) | GI50 (PC-3): > 100 µM (inactive) | GI50 (RPMI-8226): 28.2 µM (inactive) | GI50 (RXF 393): 27 µM (inactive) | GI50 (SF-268): 37.6 µM (inactive) | GI50 (SF-295): > 100 µM (inactive) | GI50 (SF-539): 93.8 µM (inactive) | GI50 (SK-MEL-28): > 100 µM (inactive) | GI50 (SK-MEL-2): > 100 µM (inactive) | GI50 (SK-MEL-5): 85.7 µM (inactive) | GI50 (SK-OV-3): > 100 µM (inactive) | GI50 (SN12C): 71 µM (inactive) | GI50 (SNB-19): > 100 µM (inactive) | GI50 (SNB-75): > 100 µM (inactive) | GI50 (SR): 25.3 µM (inactive) | GI50 (SW-620): 31.7 µM (inactive) | GI50 (T47D): 39 µM (inactive) | GI50 (TK-10): > 100 µM (inactive) | GI50 (U-251): > 100 µM (inactive) | GI50 (UACC-257): 46 µM (inactive) | GI50 (UACC-62): > 100 µM (inactive) | GI50 (UO-31): 25.1 µM (inactive)

CSc1ncc2c(n1)-c1ccccc1OC2
GI50 (786-0): 72.6 µM (inactive) | GI50 (A498): 13.3 µM (inactive) | GI50 (A549): 52.2 µM (inactive) | GI50 (ACHN): 45.9 µM (inactive) | GI50 (BT-549): 43 µM (inactive) | GI50 (CAKI-1): 19.4 µM (inactive) | GI50 (CCRF-CEM): 59.2 µM (inactive) | GI50 (COLO 205): 92.3 µM (inactive) | GI50 (DU-145): 39.4 µM (inactive) | GI50 (EKVX): 34.3 µM (inactive) | GI50 (HCT-116): 70.8 µM (inactive) | GI50 (HCT-15): 51.2 µM | GI50 (HL-60): 38.9 µM (inactive) | GI50 (HOP-92): 25.6 µM (inactive) | GI50 (HT-29): 40.4 µM (inactive) | GI50 (Hs-578T): 26.5 µM (inactive) | GI50 (IGROV-1): 34.4 µM (inactive) | GI50 (KM12): > 100 µM (inactive) | GI50 (LOX IMVI): 37.7 µM (inactive) | GI50 (M14): 45.4 µM (inactive) | GI50 (MCF7): 43.1 µM (inactive) | GI50 (MDA-MB-231): 16.7 µM (inactive) | GI50 (MDA-MB-435): 56.4 µM (inactive) | GI50 (MDA-N): 57.1 µM (inactive) | GI50 (MOLT-4): 50 µM (inactive) | GI50 (NCI-H226): 67 µM (inactive) | GI50 (NCI-H23): 84.3 µM (inactive) | GI50 (NCI-H460): 42.9 µM (inactive) | GI50 (NCI-H522): 44.5 µM (inactive) | GI50 (NCI/ADR-RES): 71.3 µM (inactive) | GI50 (OVCAR-3): 27.9 µM (inactive) | GI50 (OVCAR-4): 61 µM (inactive) | GI50 (OVCAR-5): > 100 µM (inactive) | GI50 (OVCAR-8): 79.1 µM (inactive) | GI50 (PC-3): 56.4 µM (inactive) | GI50 (RPMI-8226): > 100 µM (inactive) | GI50 (RXF 393): 41.5 µM (inactive) | GI50 (SF-268): 49.4 µM (inactive) | GI50 (SF-295): 94.2 µM (inactive) | GI50 (SF-539): 37.7 µM (inactive) | GI50 (SK-MEL-2): > 100 µM (inactive) | GI50 (SK-MEL-5): 53.1 µM (inactive) | GI50 (SK-OV-3): > 100 µM (inactive) | GI50 (SN12C): 39.7 µM (inactive) | GI50 (SNB-19): 75.9 µM (inactive) | GI50 (SNB-75): 43.6 µM (inactive) | GI50 (SR): 61 µM (inactive) | GI50 (SW-620): 62.2 µM (inactive) | GI50 (T47D): 15.9 µM (inactive) | GI50 (TK-10): 45.1 µM (inactive) | GI50 (U-251): 51.3 µM (inactive) | GI50 (UACC-257): > 100 µM (inactive) | GI50 (UACC-62): 78.2 µM (inactive) | GI50 (UO-31): 38.8 µM (inactive)
